Results as given in publication PMC6381277, “Cardiolipin Alters Rhodobacter sphaeroides Cell Shape by Affecting Peptidoglycan Precursor Biosynthesis” (mBio, 2019).

Molecular target: T1, MurG (Cereibacter sphaeroides, UniProt Q3J4M2)
T1 construct: full-length murG in pET28b(+), N-terminal His tag cut with thrombin, E. coli BL21(DE3); Triton X-100 extraction; start encoded by primer MGRPLLL
T1 sequence (Q3J4M2 1-364): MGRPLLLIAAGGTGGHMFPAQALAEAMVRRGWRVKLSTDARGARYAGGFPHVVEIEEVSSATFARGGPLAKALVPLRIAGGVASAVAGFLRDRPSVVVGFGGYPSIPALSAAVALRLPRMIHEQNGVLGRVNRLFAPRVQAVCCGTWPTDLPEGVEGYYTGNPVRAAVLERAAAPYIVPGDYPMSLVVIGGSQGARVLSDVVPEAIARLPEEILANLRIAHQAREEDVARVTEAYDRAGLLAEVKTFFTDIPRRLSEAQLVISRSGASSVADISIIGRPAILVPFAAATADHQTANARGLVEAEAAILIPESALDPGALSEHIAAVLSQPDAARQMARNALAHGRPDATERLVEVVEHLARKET
Assay: liposome-pelleting assay, SDS-PAGE densitometry
Format: binding
Conditions: 6 uM MurG, 4 mM phospholipid, 0.5 uM BSA, 20 mM Tris pH 8.0, room temperature

% pelleted MurG (10 mol% PGL in PC liposomes (mixed membrane)) [%] | % pelleted MurG (10 mol% CL in PC liposomes (mixed membrane)) [%] | SMILES
92 | – | CCCCCCCC/C=C\CCCCCCCC(=O)OC[C@H](COP(=O)(O)OCC(O)CO)OC(=O)CCCCCCC/C=C\CCCCCCCC (mixture of isomers) [PGL, 1,2-di-(9Z-octadecenoyl)-sn-glycero-D-phospho-(1′-rac-glycerol)]
– | 92 | CCCCCCCC/C=C\CCCCCCCC(=O)OC[C@H](COP(=O)(O)OCC(O)COP(=O)(O)OC[C@@H](COC(=O)CCCCCCC/C=C\CCCCCCCC)OC(=O)CCCCCCC/C=C\CCCCCCCC)OC(=O)CCCCCCC/C=C\CCCCCCCC (some centres unmarked) [CL, 1,1′,2,2′-tetra-(9Z-octadecenoyl) cardiolipin]
